# US5773414A, “Endothelin antagonists” (Warner-Lambert Company, priority 1997, dated 1998)
# Where a name gives a salt, the structure may show the parent alone. Read-outs that look alike come from different tables or passages of the source. Square brackets hold non-standard residues; d marks the D form. Peptide text beside a SMILES is read from it. dDip = N[C@@H](C(=O)O)C(c1ccccc1)c1ccccc1; d2Nal = N[C@H](Cc1ccc2ccccc2c1)C(=O)O; Orn = NCCC[C@H](N)C(=O)O
# Tests used:
# [1] = target: T1, endothelin receptor (rat heart ventricle) (Rattus norvegicus, UniProt P26684); test: Rat Heart Ventricle Binding Assay ([125I]-ET-1); settings: Table II
# T1 sequence (P26684 21-426): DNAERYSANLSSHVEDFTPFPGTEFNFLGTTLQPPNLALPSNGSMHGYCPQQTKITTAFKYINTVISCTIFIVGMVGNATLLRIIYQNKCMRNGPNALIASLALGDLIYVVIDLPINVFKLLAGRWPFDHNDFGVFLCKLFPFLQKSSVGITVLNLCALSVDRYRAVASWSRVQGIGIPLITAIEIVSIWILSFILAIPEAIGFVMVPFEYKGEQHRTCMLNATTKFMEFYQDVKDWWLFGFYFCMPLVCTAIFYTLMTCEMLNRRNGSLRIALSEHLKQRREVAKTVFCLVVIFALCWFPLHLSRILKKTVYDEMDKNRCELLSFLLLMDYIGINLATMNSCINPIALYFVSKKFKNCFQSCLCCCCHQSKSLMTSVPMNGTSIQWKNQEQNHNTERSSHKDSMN
# Protocol: Rat Heart Ventricle Binding Assay
# IC50 values are calculated by weighing nonlinear regression curve-fitting to the mass-action (Langmuir) equation.
# ETA = target: T2, ETA (Oryctolagus cuniculus, UniProt A5A8K3); test: Endothelin Receptor Binding Assay-A (ETA), intact cell binding of [125I]-ET-1; set-up: species or system rabbit; settings: Table IIa; rabbit renal artery vascular smooth muscle cells; read-out: Binding Assay IC50 at Receptor Subtypes ETA
# T2 construct: The cells used were rabbit renal artery vascular smooth muscle cells; endogenous in cells; host or cells: rabbit renal artery vascular smooth muscle cells
# T2 sequence (A5A8K3 21-427): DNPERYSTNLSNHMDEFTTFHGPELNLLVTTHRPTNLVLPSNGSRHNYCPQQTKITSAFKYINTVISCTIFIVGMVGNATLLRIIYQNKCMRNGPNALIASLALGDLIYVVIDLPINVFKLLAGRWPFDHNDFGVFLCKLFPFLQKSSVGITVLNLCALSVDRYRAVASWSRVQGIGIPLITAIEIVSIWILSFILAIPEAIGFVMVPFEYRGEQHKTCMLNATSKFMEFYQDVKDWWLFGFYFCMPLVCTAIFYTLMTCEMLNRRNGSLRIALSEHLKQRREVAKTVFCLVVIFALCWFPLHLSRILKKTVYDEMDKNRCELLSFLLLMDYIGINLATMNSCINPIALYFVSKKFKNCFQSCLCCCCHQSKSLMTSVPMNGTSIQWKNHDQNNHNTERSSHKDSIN
# ETB = target: T3, ETB (Rattus norvegicus, UniProt P21451); test: Endothelin Receptor Binding Assay-B (ETB), [125I]-ET-1 binding in rat cerebellar membranes; settings: Table IIa; rat cerebellar membranes; read-out: Binding Assay IC50 at Receptor Subtypes ETB
# T3 construct: thaw one aliquot of frozen rat cerebellar membranes; from tissue; host or cells: rat cerebellar membranes
# T3 sequence (P21451 27-442): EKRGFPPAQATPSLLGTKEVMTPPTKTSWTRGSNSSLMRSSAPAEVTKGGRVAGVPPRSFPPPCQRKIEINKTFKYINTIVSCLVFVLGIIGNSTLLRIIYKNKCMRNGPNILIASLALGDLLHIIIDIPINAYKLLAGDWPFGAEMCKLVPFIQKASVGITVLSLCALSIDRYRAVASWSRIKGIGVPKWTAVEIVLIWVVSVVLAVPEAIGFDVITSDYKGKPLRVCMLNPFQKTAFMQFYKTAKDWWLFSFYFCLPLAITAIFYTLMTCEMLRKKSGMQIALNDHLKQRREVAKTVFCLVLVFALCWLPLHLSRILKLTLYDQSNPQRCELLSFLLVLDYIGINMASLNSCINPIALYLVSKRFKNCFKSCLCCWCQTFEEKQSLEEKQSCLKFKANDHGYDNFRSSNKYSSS
# [2] = target: T4, endothelin-stimulated inositol phosphate accumulation in Rat-1 cells (Rattus norvegicus, UniProt P26684); test: Inositol Phosphate Accumulation; type: cell-based
# T4 sequence (P26684 21-426): T1 sequence (P26684 21-426)
# Protocol: Inositol Phosphate Accumulation
# The functional activity of compounds of Formula I is determined in Rat-1 cells by measuring intra-cellular levels of second messengers. […] Antagonist activity is assessed as the ability of added compounds to reduce endothelin-stimulated inositol phosphate accumulation.
# [3] = tested on: ET-1 induced bronchoconstriction and tracheal smooth muscle contraction; settings: allergic sheep; cited from earlier work
# endotoxic shock = settings: mouse model of endotoxic shock; cited from earlier work
# [4] = tested on: pulmonary artery rings contracted by SRTX-6c; test: In vitro isolated vessel study, pulmonary artery rings, agonist SRTX-6c; set-up: species or system rabbit; settings: Table III, endothelium-denuded rings
# Protocol: In Vitro (Isolated Vessel) Studies
# Male New Zealand rabbits were killed by cervical dislocation and exsanguination. Femoral and pulmonary arteries were isolated, cleaned of connective tissue, and cut into 4 mm rings. The endothelium was denuded by placing the rings over hypodermic tubing (32 gauge for femoral rings and 28 gauge for pulmonary rings, Small Parts Inc., Miami, Fla.) and gently rolling them. Denuded rings were mounted in 20 mL organ baths containing Krebs-bicarbonate buffer (composition in mM: NaCl, 118.2; NaHCO3, 24.8; KCl, 4.6; MgSO4, 7.H2 O, 1.2; KH2 PO4, 1.2; CaCl2. 2H2 O; Ca--Na2 EDTA, 0.026; Dextrose, 10.0), that was maintained at 37° C., and gassed continuously with 5% CO2 in oxygen (pH 7.4). Resting tension was adjusted to 3.0 g for femoral and 4.0 g pulmonary arteries; the rings were left for 90 minutes to equilibrate. Tension was monitored with force displacement transducers (Grass FT03, Quincy, Mass.) and recorded on a polygraph (Gould 2108, Cleveland, Ohio) recorder.
# Vascular rings were tested for a lack of functional endothelium, i.e., lack of an endothelium-dependent relaxation response to carbachol (1.0 μM) in norepinephrine (0.03 μM) contracted rings. […]
# For the in vitro experiments compounds were dissolved in 0.1% acetic acid in distilled water. […] The antagonist activity of various compounds are expressed as PA2 values in Table III.
Compound,inhibition at 10 µM [1] [%],IC50 (ETA) [nM],IC50 (ETB) [nM],also measured
"CC[C@H](C)[C@H](NC(=O)[C@H](CC(=O)O)NC(=O)[C@@H](CC(C)C)NC(=O)[C@H](NC(C)=O)C(c1ccccc1)c1ccccc1)C(=O)N[C@H](C(=O)N[C@@H](Cc1c[nH]c2ccccc12)C(=O)O)[C@@H](C)CC [Example 23, Ac--D--Dip--D--Leu--Asp--Ile--Ile--Trp] (Ac-[dDip][dL]DIIW-OH)",41.3,–,–,–
"CC[C@H](C)[C@H](NC(=O)[C@H](CC(=O)O)NC(=O)[C@@H](Cc1ccccc1)NC(C)=O)C(=O)N[C@H](C(=O)N[C@@H](Cc1c[nH]c2ccccc12)C(=O)O)[C@@H](C)CC [Example 11, Ac--D--Phe--Asp--Ile--Ile--Trp] (Ac-[dF]DIIW-OH)",–,9100,9300,"inhibition at 10 µM ([2]; Table IIa, @ 10 μM, read-out: IP (Inositol Phosphate) Accumulation, % Inhibition): 30%"
"CC[C@H](C)[C@H](NC(=O)[C@H](CC(=O)O)NC(=O)[C@H](CC(C)C)NC(=O)[C@H](NC(C)=O)C(c1ccccc1)c1ccccc1)C(=O)N[C@@H](CCCCN)C(=O)N[C@@H](Cc1c[nH]c2ccccc12)C(=O)O [Example 17, Ac--D--Dip--Leu--Asp--Ile--Lys--Trp] (Ac-[dDip]LDIKW-OH)",24.6,> 10000,4200,–
CC(C)C[C@@H]1NC(=O)[C@@H](C(C)C)NC(=O)[C@@H]2CCCN2C(=O)[C@@H](CC(=O)O)NC(=O)[C@@H](Cc2c[nH]c3ccccc23)NC1=O [BQ-123] (cyclo(L[dW][dD]P[dV])),–,–,–,effect on ET-1 induced bronchoconstriction and tracheal smooth muscle contraction [3]: block ET-1 induced bronchoconstriction and tracheal smooth muscle contraction; survival rate (endotoxic shock): significantly increased
CC[C@H](C)[C@H](NC(=O)[C@H](CC(=O)O)NC(=O)[C@H](CC(C)C)NC(=O)[C@H](NC(C)=O)C(c1ccccc1)c1ccccc1)C(=O)N[C@H](C(=O)N[C@@H](Cc1c[nH]c2ccccc12)C(=O)O)[C@@H](C)CC [Disodium salt of Ac-D-Dip-Leu-Asp-Ile-Ile-Trp] (Ac-[dDip]LDIIW-OH),–,–,–,"pA2, rabbit pulmonary artery [4]: 6.26"
"CC[C@H](C)[C@H](NC(=O)[C@H](CC(=O)O)NC(=O)[C@H](CC(C)C)NC(=O)[C@H](N)Cc1ccc2ccccc2c1)C(=O)N[C@H](C(=O)N[C@@H](Cc1c[nH]c2ccccc12)C(=O)O)[C@@H](C)CC [Example 4, D-2-Nal--Leu--Asp--Ile--Ile--Trp] (H-[d2Nal]LDIIW-OH; N-terminus and C-terminus assumed)",–,–,–,"inhibition at 50 µM ([2]; Table II, read-out: IP (Inositol Phosphate) Accumulation, Inhibition): 53%; inhibition at 50 µM ([2]; Table IIa, read-out: IP (Inositol Phosphate) Accumulation, % Inhibition): 53%"
"CC[C@H](C)[C@H](NC(=O)[C@H](CC(=O)O)NC(=O)[C@H](CCC(=O)O)NC(=O)[C@H](NC(C)=O)C(c1ccccc1)c1ccccc1)C(=O)N[C@H](C(=O)N[C@@H](Cc1c[nH]c2ccccc12)C(=O)O)[C@@H](C)CC [Example 20, Ac--D--Dip--Glu--Asp--Ile--Ile--Trp] (Ac-[dDip]EDIIW-OH)",–,25,52,"pA2, rabbit pulmonary artery [4]: 6.85"
"CC[C@H](C)[C@H](NC(=O)[C@H](CC(=O)O)NC(=O)[C@H](CCCN)NC(=O)[C@H](NC(C)=O)C(c1ccccc1)c1ccccc1)C(=O)N[C@H](C(=O)N[C@@H](Cc1c[nH]c2ccccc12)C(=O)O)[C@@H](C)CC [Example 21, Ac--D--Dip--Orn--Asp--Ile--Ile--Trp] (Ac-[dDip][Orn]DIIW-OH)",–,15,220,inhibition at 0.05 µM ([1]; @ 0.05 μM): 79%
"CC[C@H](C)[C@H](NC(=O)[C@H](CC(=O)O)NC(=O)[C@H](CC(C)C)NC(=O)[C@H](NC(C)=O)C(c1ccccc1)c1ccccc1)C(=O)N[C@@H](CCC(=O)O)C(=O)N[C@@H](Cc1c[nH]c2ccccc12)C(=O)O [Example 18, Ac--D--Dip--Leu--Asp--Ile--Glu--Trp] (Ac-[dDip]LDIEW-OH)",37,–,–,–
